Source: patent EP0603240B1, “SAFENING HERBICIDAL PYRAZOLYLSULFONYLUREAS” (priority 1991, dated 1993)

Legend:
Experiment in all cases: Example 24, Procedure II: Herbicide No. 1 + co-herbicides Nos. 4, 6, 7, 12 with Antidote Nos. 15 and 17-21
Format in all cases: in vivo
corn = system: corn
Protocol: (§1) Containers were filled and compacted with a fumigated silt loam top soil to a depth of about 1.3 cm from the top of the container. A first container was designated as an untreated control, a second container was designated as a herbicide control, and a third container was designated as a herbicide + antidote test container. Each of the containers was seeded with a crop species. A measured amount of herbicide dispersed or dissolved in acetone was applied to a measured quantity of soil. To this same quantity of soil treated with herbicide, there was added a measured amount of antidote dispersed or dissolved in acetone. The quantity of soil treated with the herbicide and antidote was thoroughly mixed to incorporate the herbicide and antidote in the soil uniformly. The seed bed in the third container of soil was covered with the soil treated with the herbicide and antidote and the container was leveled. For each test series, the seed beds of the first and second containers were likewise covered by soil layers. the cover layer of the first container was not treated with herbicide or antidote.
(§2) The containers were then placed on a bench in a greenhouse and sub-irrigated as required for the duration of the test. […] Plant response is measured in terms of percent injury. Antidote efficacy is indicated as the difference in plant injury by the herbicide(s) without the antidote and with the antidote.
(§3) This procedure is the same as Procedure I, but modified in the manner that after incorporation of the chemicals (herbicide and antidote) the containers with the covered seedbed were treated with an initial overhead irrigation equivalent to 0.6 cm rainfall, then subsequently sub-irrigated as required on greenhouse benches.
(§4) In other greenhouse tests, using Procedure II described above, the safening efficacy of Antidote Nos. 15 and 17-21 was evaluated against Herbicide No. 1 in corn in the presence of Giant foxtail (Setaria fabergi) and Velvetleaf (Abutilon theophrasti) as representative annual monocotyledonous and dicotyledonous weeds, respectively.
(§5) Test results are shown in Tables 23A and 23B wherein the indicated plant inhibition represents the average of duplicate replications, with observations being made thirteen (13) days after application of the chemicals. Giant foxtail and Velvetleaf are represented by the symbols "GFT" and "VL", respectively. The data in Table 23A show the test results using the antidotes at 2.24 kg/ha, whereas in Table 23B, the antidotal rate was reduced to 0.56 kg/ha.
(§6) The tests described in Example 23 were duplicated, but in this example a variety of co-herbicides were included to ascertain the efficacy of the antidotes against combinations of Herbicide No. 1 and Herbicides Nos. 4, 6, 7 and 12 as co-herbicides. Test results are shown in Table 24, wherein the antidote application rate was 2.24 kg/ha.

[1] = system: Giant foxtail (Setaria fabergi)
Protocol: as §1, §2, §3, §4, §5, §6

[2] = system: velvetleaf (Abutilon theophrasti)
Protocol: as §1, §2, §3, §4, §5, §6

[3] = Herb. No. 1 0.07 Kg/ha + Co-Herb. No. 4 1.12 Kg/ha + antidote 2.24 Kg/ha
[4] = Herb. No. 1 0.07 Kg/ha + Co-Herb. No. 6 0.14 Kg/ha + antidote 2.24 Kg/ha
[5] = Herb. No. 1 0.07 Kg/ha + Co-Herb. No. 7 0.28 Kg/ha + antidote 2.24 Kg/ha
[6] = Herb. No. 1 0.07 Kg/ha + Co-Herb. No. 12 0.28 Kg/ha + antidote 2.24 Kg/ha
[7] = Herb. No. 1 0.14 Kg/ha + Co-Herb. No. 4 1.12 Kg/ha + antidote 2.24 Kg/ha
[8] = Herb. No. 1 0.14 Kg/ha + Co-Herb. No. 6 0.14 Kg/ha + antidote 2.24 Kg/ha
[9] = Herb. No. 1 0.14 Kg/ha + Co-Herb. No. 7 0.28 Kg/ha + antidote 2.24 Kg/ha
[10] = Herb. No. 1 0.14 Kg/ha + Co-Herb. No. 12 0.28 Kg/ha + antidote 2.24 Kg/ha
[11] = Herb. No. 1 0.28 Kg/ha + Co-Herb. No. 4 1.12 Kg/ha + antidote 2.24 Kg/ha
[12] = Herb. No. 1 0.28 Kg/ha + Co-Herb. No. 6 0.14 Kg/ha + antidote 2.24 Kg/ha
[13] = Herb. No. 1 0.28 Kg/ha + Co-Herb. No. 7 0.28 Kg/ha + antidote 2.24 Kg/ha
[14] = Herb. No. 1 0.28 Kg/ha + Co-Herb. No. 12 0.28 Kg/ha + antidote 2.24 Kg/ha
[15] = Herb. No. 1 0.56 Kg/ha + Co-Herb. No. 4 1.12 Kg/ha + antidote 2.24 Kg/ha
[16] = Herb. No. 1 0.56 Kg/ha + Co-Herb. No. 6 0.14 Kg/ha + antidote 2.24 Kg/ha
[17] = Herb. No. 1 0.56 Kg/ha + Co-Herb. No. 7 0.28 Kg/ha + antidote 2.24 Kg/ha
[18] = Herb. No. 1 0.56 Kg/ha + Co-Herb. No. 12 0.28 Kg/ha + antidote 2.24 Kg/ha

O=C(O)COC(c1ccccc1)c1ccccc1 [compound 19]
% Inhibition Corn (corn; [3]): 0% | % Inhibition Corn (corn; [4]): 0% | % Inhibition Corn (corn; [5]): 0% | % Inhibition Corn (corn; [6]): 0% | % Inhibition Corn (corn; [7]): 0% | % Inhibition Corn (corn; [8]): 0% | % Inhibition Corn (corn; [9]): 0% | % Inhibition Corn (corn; [10]): 0% | % Inhibition Corn (corn; [11]): 5% | % Inhibition Corn (corn; [12]): 5% | % Inhibition Corn (corn; [13]): 5% | % Inhibition Corn (corn; [14]): 5% | % Inhibition Corn (corn; [15]): 5% | % Inhibition Corn (corn; [16]): 10% | % Inhibition Corn (corn; [17]): 10% | % Inhibition Corn (corn; [18]): 20% | % Inhibition GFT [1, 3]: 40% | % Inhibition GFT [1, 4]: 100% | % Inhibition GFT [1, 5]: 99% | % Inhibition GFT [1, 6]: 99% | % Inhibition GFT [1, 7]: 60% | % Inhibition GFT [1, 8]: 100% | % Inhibition GFT [1, 9]: 99% | % Inhibition GFT [1, 10]: 99% | % Inhibition GFT [1, 11]: 45% | % Inhibition GFT [1, 12]: 99% | % Inhibition GFT [1, 13]: 99% | % Inhibition GFT [1, 14]: 100% | % Inhibition GFT [1, 15]: 70% | % Inhibition GFT [1, 16]: 99% | % Inhibition GFT [1, 17]: 99% | % Inhibition GFT [1, 18]: 99% | % Inhibition VL [2, 3]: 90% | % Inhibition VL [2, 4]: 90% | % Inhibition VL [2, 5]: 90% | % Inhibition VL [2, 6]: 85% | % Inhibition VL [2, 7]: 95% | % Inhibition VL [2, 8]: 95% | % Inhibition VL [2, 9]: 90% | % Inhibition VL [2, 10]: 85% | % Inhibition VL [2, 11]: 95% | % Inhibition VL [2, 12]: 95% | % Inhibition VL [2, 13]: 95% | % Inhibition VL [2, 14]: 95% | % Inhibition VL [2, 15]: 90% | % Inhibition VL [2, 16]: 99% | % Inhibition VL [2, 17]: 98% | % Inhibition VL [2, 18]: 99%

CCSC(=O)COC(c1ccccc1)c1ccccc1 [compound 21]
% Inhibition Corn (corn; [3]): 5% | % Inhibition Corn (corn; [4]): 0% | % Inhibition Corn (corn; [5]): 0% | % Inhibition Corn (corn; [6]): 0% | % Inhibition Corn (corn; [7]): 5% | % Inhibition Corn (corn; [8]): 5% | % Inhibition Corn (corn; [9]): 0% | % Inhibition Corn (corn; [10]): 5% | % Inhibition Corn (corn; [11]): 0% | % Inhibition Corn (corn; [12]): 5% | % Inhibition Corn (corn; [13]): 5% | % Inhibition Corn (corn; [14]): 10% | % Inhibition Corn (corn; [15]): 5% | % Inhibition Corn (corn; [16]): 10% | % Inhibition Corn (corn; [17]): 15% | % Inhibition Corn (corn; [18]): 20% | % Inhibition GFT [1, 3]: 65% | % Inhibition GFT [1, 4]: 100% | % Inhibition GFT [1, 5]: 100% | % Inhibition GFT [1, 6]: 100% | % Inhibition GFT [1, 7]: 60% | % Inhibition GFT [1, 8]: 100% | % Inhibition GFT [1, 9]: 100% | % Inhibition GFT [1, 10]: 99% | % Inhibition GFT [1, 11]: 65% | % Inhibition GFT [1, 12]: 99% | % Inhibition GFT [1, 13]: 98% | % Inhibition GFT [1, 14]: 100% | % Inhibition GFT [1, 15]: 70% | % Inhibition GFT [1, 16]: 100% | % Inhibition GFT [1, 17]: 100% | % Inhibition GFT [1, 18]: 99% | % Inhibition VL [2, 3]: 90% | % Inhibition VL [2, 4]: 85% | % Inhibition VL [2, 5]: 95% | % Inhibition VL [2, 6]: 90% | % Inhibition VL [2, 7]: 90% | % Inhibition VL [2, 8]: 90% | % Inhibition VL [2, 9]: 90% | % Inhibition VL [2, 10]: 95% | % Inhibition VL [2, 11]: 95% | % Inhibition VL [2, 12]: 95% | % Inhibition VL [2, 13]: 95% | % Inhibition VL [2, 14]: 98% | % Inhibition VL [2, 15]: 90% | % Inhibition VL [2, 16]: 98% | % Inhibition VL [2, 17]: 98% | % Inhibition VL [2, 18]: 98%

COC(=O)COC(c1ccccc1)c1ccccc1 [compound 20]
% Inhibition Corn (corn; [3]): 0% | % Inhibition Corn (corn; [4]): 0% | % Inhibition Corn (corn; [5]): 0% | % Inhibition Corn (corn; [6]): 0% | % Inhibition Corn (corn; [7]): 0% | % Inhibition Corn (corn; [8]): 5% | % Inhibition Corn (corn; [9]): 0% | % Inhibition Corn (corn; [10]): 5% | % Inhibition Corn (corn; [11]): 0% | % Inhibition Corn (corn; [12]): 5% | % Inhibition Corn (corn; [13]): 0% | % Inhibition Corn (corn; [14]): 5% | % Inhibition Corn (corn; [15]): 10% | % Inhibition Corn (corn; [16]): 20% | % Inhibition Corn (corn; [17]): 5% | % Inhibition Corn (corn; [18]): 10% | % Inhibition GFT [1, 3]: 65% | % Inhibition GFT [1, 4]: 100% | % Inhibition GFT [1, 5]: 98% | % Inhibition GFT [1, 6]: 99% | % Inhibition GFT [1, 7]: 40% | % Inhibition GFT [1, 8]: 99% | % Inhibition GFT [1, 9]: 98% | % Inhibition GFT [1, 10]: 100% | % Inhibition GFT [1, 11]: 65% | % Inhibition GFT [1, 12]: 100% | % Inhibition GFT [1, 13]: 100% | % Inhibition GFT [1, 14]: 100% | % Inhibition GFT [1, 15]: 65% | % Inhibition GFT [1, 16]: 100% | % Inhibition GFT [1, 17]: 99% | % Inhibition GFT [1, 18]: 100% | % Inhibition VL [2, 3]: 90% | % Inhibition VL [2, 4]: 95% | % Inhibition VL [2, 5]: 95% | % Inhibition VL [2, 6]: 90% | % Inhibition VL [2, 7]: 90% | % Inhibition VL [2, 8]: 90% | % Inhibition VL [2, 9]: 90% | % Inhibition VL [2, 10]: 95% | % Inhibition VL [2, 11]: 90% | % Inhibition VL [2, 12]: 98% | % Inhibition VL [2, 13]: 95% | % Inhibition VL [2, 14]: 98% | % Inhibition VL [2, 15]: 95% | % Inhibition VL [2, 16]: 95% | % Inhibition VL [2, 17]: 95% | % Inhibition VL [2, 18]: 98%

O=C(O)COC(c1ccccc1)c1ccccc1 [compound 18]
% Inhibition Corn (corn; [3]): 5% | % Inhibition Corn (corn; [4]): 0% | % Inhibition Corn (corn; [5]): 0% | % Inhibition Corn (corn; [6]): 0% | % Inhibition Corn (corn; [7]): 5% | % Inhibition Corn (corn; [8]): 0% | % Inhibition Corn (corn; [9]): 10% | % Inhibition Corn (corn; [10]): 0% | % Inhibition Corn (corn; [11]): 5% | % Inhibition Corn (corn; [12]): 5% | % Inhibition Corn (corn; [13]): 5% | % Inhibition Corn (corn; [14]): 10% | % Inhibition Corn (corn; [15]): 10% | % Inhibition Corn (corn; [16]): 20% | % Inhibition Corn (corn; [17]): 10% | % Inhibition Corn (corn; [18]): 15% | % Inhibition GFT [1, 3]: 65% | % Inhibition GFT [1, 4]: 100% | % Inhibition GFT [1, 5]: 99% | % Inhibition GFT [1, 6]: 100% | % Inhibition GFT [1, 7]: 55% | % Inhibition GFT [1, 8]: 99% | % Inhibition GFT [1, 9]: 99% | % Inhibition GFT [1, 10]: 99% | % Inhibition GFT [1, 11]: 70% | % Inhibition GFT [1, 12]: 99% | % Inhibition GFT [1, 13]: 100% | % Inhibition GFT [1, 14]: 100% | % Inhibition GFT [1, 15]: 65% | % Inhibition GFT [1, 16]: 100% | % Inhibition GFT [1, 17]: 100% | % Inhibition GFT [1, 18]: 99% | % Inhibition VL [2, 3]: 90% | % Inhibition VL [2, 4]: 90% | % Inhibition VL [2, 5]: 90% | % Inhibition VL [2, 6]: 80% | % Inhibition VL [2, 7]: 95% | % Inhibition VL [2, 8]: 95% | % Inhibition VL [2, 9]: 95% | % Inhibition VL [2, 10]: 99% | % Inhibition VL [2, 11]: 95% | % Inhibition VL [2, 12]: 95% | % Inhibition VL [2, 13]: 95% | % Inhibition VL [2, 14]: 95% | % Inhibition VL [2, 15]: 90% | % Inhibition VL [2, 16]: 98% | % Inhibition VL [2, 17]: 98% | % Inhibition VL [2, 18]: 95%
